Measured values taken from patent US20240024290A1, “PHARMACEUTICAL COMPOSITIONS COMPRISING CANNABINOID AGONIST” (ARTELO BIOSCIENCES LIMITED, priority 2020, published 2024).
Where “and” joins values, the source holds several entries; their conditions need not be identical. Identical values can stand only once.

Assay: Solubility study of API in liquid, semi-solid and binary excipients (visual, solvent aliquots, Parts 1 and 2)
Conditions: for Aliquot where API first fully dissolved, Part 2 Study: aliquots 1/2/3/4 = 0.8/0.4/0.25/0.1 % w/v
Protocol: The aim of this study was to assess the solubility of the N-(2-(tert-butyl)-1-((4,4-difluorocyclohexyl)methyl)-1H-benzimidazol-5-yl)ethanesulfonamide in a number of different excipients.
The binary semi-solid composition mixtures were manufactured as follows: • I. The semi solids were dispensed then molten overnight at ˜60° C. […] (PEG 6000) • II. PEG 400 was added the next day, as required, (when all the semi-solids were molten) • III. Binary solvent mixture containing PEG 6000 were mixed at ˜80° C. and the remaining binaries were mixed at ˜70° C., until homogenous
Where required, the semi solids were melted prior to use (overnight). The solubility of the API in the selected solvents was assessed in two parts (Part 1 and Part 2 Studies) as follows: • i. Solvent aliquots were added to pre-dispensed API while mixing using a magnetic flea and stirrer. • ii. The temperature of the solvents was maintained as follows: • a. Single-component liquids: Room temperature (ambient) • b. TPGS and PEG 1500: ˜60° C. • c. PEG 6000 and binary solvent mixtures containing PEG 6000: ˜80° C. • iii. Solvents were mixed for a maximum of 1 hour between each aliquot addition. • iv. The solvents were carefully inspected visually between aliquots. • v. The addition of solvent was stopped when: • a. After Aliquot 2 addition if API fully dissolve—(even if API dissolve after Aliquot 1, Aliquot 2 was added) • b. After adding all the solvent aliquots in Table 28 • vi.

SMILES: CCS(=O)(=O)Nc1ccc2c(c1)nc(C(C)(C)C)n2CC1CCC(F)(F)CC1 [Compound I, N-(2-(tert-butyl)-1-((4,4-difluorocyclohexyl)methyl)-1H-benzimidazol-5-yl)ethanesulfonamide]
- Aliquot where API first fully dissolved, Part 2 Study (in PEG1500:TPGS (1:9)): 2nd
- Aliquot where API first fully dissolved, Part 1 Study (in PEG1500:TPGS (1:9), aliquots 1/2/3 = 0.05/0.025/0.0125 % w/v): 3rd
- Solubility range (% w/v) Above/Below (in PEG1500:TPGS (1:9), listed as API): > 0.40% w/v and < 0.80% w/v
- Aliquot where API first fully dissolved, Part 2 Study (in PEG1500:TPGS (9:1)): 1st
- Aliquot where API first fully dissolved, Part 1 Study (in PEG1500:TPGS (9:1), aliquots 1/2/3 = 0.05/0.025/0.0125 % w/v): 1st
- Solubility range (% w/v) Above/Below (in PEG1500:TPGS (9:1), upper limit not known): > 0.80% w/v
- Aliquot where API first fully dissolved, Part 2 Study (in Polysorbate 20, ambient, only after Overnight Hold): 4th Only
- Aliquot where API first fully dissolved, Part 1 Study (in Polysorbate 20, ambient, only after stirring overnight, aliquots 1/2/3 = 0.05/0.025/0.0125 % w/v): 3rd^#
- Solubility range (% w/v) Above/Below (in Polysorbate 20, ambient, upper limit not known): > 0.10% w/v
- Aliquot where API first fully dissolved, Part 2 Study (in Polysorbate 80, ambient, only after Overnight Hold): 4th Only
- Aliquot where API first fully dissolved, Part 1 Study (in Polysorbate 80, ambient, only after stirring overnight, aliquots 1/2/3 = 0.05/0.025/0.0125 % w/v): 3rd^#
- Solubility range (% w/v) Above/Below (in Polysorbate 80, ambient, upper limit not known): > 0.10% w/v
- Aliquot where API first fully dissolved, Part 2 Study (in Propylene glycol dilaurate, ambient, only after Overnight Hold): 4th Only
- Aliquot where API first fully dissolved, Part 1 Study (in Propylene glycol dilaurate, ambient, only after stirring overnight, aliquots 1/2/3 = 0.05/0.025/0.0125 % w/v): 3rd^#
- Solubility range (% w/v) Above/Below (in Propylene glycol dilaurate, ambient, upper limit not known): > 0.10% w/v
- Aliquot where API first fully dissolved, Part 2 Study (in Propylene glycol monocaprylate, ambient): 2nd
- Aliquot where API first fully dissolved, Part 1 Study (in Propylene glycol monocaprylate, ambient, aliquots 1/2/3 = 0.05/0.025/0.0125 % w/v): 2nd
- Solubility range (% w/v) Above/Below (in Propylene glycol monocaprylate, ambient, listed as API): > 0.40% w/v and < 0.80% w/v
- Aliquot where API first fully dissolved, Part 1 Study (in Soybean oil, ambient, DND = did not dissolve even after 3 aliquots (0.0125 % w/v)): DND*
- Aliquot where API first fully dissolved, Part 2 Study (in molten Capmul 808G): 3rd
- Aliquot where API first fully dissolved, Part 1 Study (in molten Capmul 808G, aliquots 1/2/3 = 0.05/0.025/0.0125 % w/v): 1st
- Solubility range (% w/v) Above/Below (in molten Capmul 808G, listed as API): > 0.25% w/v and < 0.40% w/v
- Solubility range (% w/v) Above/Below (in molten Cremophor RH40, listed as API): > 0.40% w/v and < 0.80% w/v
- Aliquot where API first fully dissolved, Part 1 Study (in molten Cremophor RH40, only after Overnight Hold, aliquots 1/2/3 = 0.05/0.025/0.0125 % w/v): 2nd Only
- Aliquot where API first fully dissolved, Part 2 Study (in molten Cremophor RH40, only after stirring overnight): 2nd^#
- Aliquot where API first fully dissolved, Part 2 Study (in molten Gelucire 48/16): 4th
- Aliquot where API first fully dissolved, Part 1 Study (in molten Gelucire 48/16, aliquots 1/2/3 = 0.05/0.025/0.0125 % w/v): 1st
- Aliquot where API first fully dissolved, Part 2 Study (in molten Gelucire 50/13): 3rd
- Aliquot where API first fully dissolved, Part 1 Study (in molten Gelucire 50/13, aliquots 1/2/3 = 0.05/0.025/0.0125 % w/v): 2nd
- Solubility range (% w/v) Above/Below (in molten Gelucire 50/13, listed as API): > 0.25% w/v and < 0.40% w/v
- Aliquot where API first fully dissolved, Part 2 Study (in molten Glyceryl monooleate): 2nd
- Aliquot where API first fully dissolved, Part 1 Study (in molten Glyceryl monooleate, aliquots 1/2/3 = 0.05/0.025/0.0125 % w/v): 2nd
- Solubility range (% w/v) Above/Below (in molten Glyceryl monooleate, listed as API): > 0.40% w/v and < 0.80% w/v
- Aliquot where API first fully dissolved, Part 1 Study (in molten Glyceryl palmitostearate, DND = Did not dissolve (3 aliquots, 0.0125 % w/v)): DND*
- Aliquot where API first fully dissolved, Part 2 Study (in molten Kolliphor HS15): 2nd
- Aliquot where API first fully dissolved, Part 1 Study (in molten Kolliphor HS15, aliquots 1/2/3 = 0.05/0.025/0.0125 % w/v): 1st
- Solubility range (% w/v) Above/Below (in molten Kolliphor HS15, listed as API): > 0.40% w/v and < 0.80% w/v
- Aliquot where API first fully dissolved, Part 2 Study (in molten PEG 4000): 2nd
- Aliquot where API first fully dissolved, Part 1 Study (in molten PEG 4000, aliquots 1/2/3 = 0.05/0.025/0.0125 % w/v): 1st
- Solubility range (% w/v) Above/Below (in molten PEG 4000, listed as API): > 0.40% w/v and < 0.80% w/v
- Aliquot where API first fully dissolved, Part 2 Study (in molten PEG 6000, ~80° C.): 1st
- Aliquot where API first fully dissolved, Part 1 Study (in molten PEG 6000, ~80° C., aliquots 1/2/3 = 0.05/0.025/0.0125 % w/v): 2nd
- Solubility range (% w/v) Above/Below (in molten PEG 6000, ~80° C., upper limit not known): > 0.80% w/v
- Aliquot where API first fully dissolved, Part 1 Study (in molten Sorbitan palmitate, DND = Did not dissolve (3 aliquots, 0.0125 % w/v)): DND*
